In paper PMC9088062 (2018):

Experiments:
[1] = system: Tcy2 (DNA, G4) GGTTGGTTGGTTGGTTTT; assay: FAM fluorescence quenching; settings: 10 mM Tris-acetate pH 8.0, room temperature, 25 nM DNA
[2] = system: Random DNA (DNA, single strand) ATCGACATGTAGCCGATGGC; assay: FAM fluorescence quenching; settings: 10 mM Tris-acetate pH 8.0, room temperature; 25 nM DNA; highest tested 100 ppb
[3] = system: Tcy2 (DNA, G4) GGTTGGTTGGTTGGTTTT; assay: circular dichroism; settings: 10 mM MOPS pH 7.0, room temperature, 5 min; 1 μM DNA, 1 ppm cyromazine
[4] = tested at 50 ppb, no fluorescence change

Row | binding [1, 4] | SMILES | other results
1 | no | O=C(N[C@H](CO)[C@H](O)c1ccc([N+](=O)[O-])cc1)C(Cl)Cl | 
2 | no | CS(=O)(=O)c1ccc([C@@H](O)[C@@H](CO)NC(=O)C(Cl)Cl)cc1 | 

Continued, molecule first:

Row | SMILES | binding [1, 4] | other results
3 | c1ccc([C@H]2CN3CCSC3=N2)cc1 | no | 
4 | Cc1ccc(N=CN(C)C=Nc2ccc(C)cc2C)c(C)c1 | no | 
5 | CN(C)[C@@H]1C(=O)C(C(N)=O)=C(O)[C@@]2(O)C(=O)C3=C(O)c4c(O)cccc4[C@@](C)(O)[C@H]3[C@H](O)[C@@H]12 | no | 
6 | Cc1nc(C)c(Cl)c(O)c1Cl | no | 
7 | Nc1nc(N)nc(NC2CC2)n1 |  | binding [2]: no; binding [3]: yes; binding ([1]; 2 min, static quenching): yes
